These results are taken from US20260048130A1, “ALPHA-V BETA-6 (avb6) INTEGRIN LIGANDS FOR EXTRAHEPATIC DELIVERY” (Alnylam Pharmaceuticals, Inc., priority 2022, published 2026).

One data set concerns Sod1 mRNA. Kind of data set: Sod1 mRNA knockdown in mouse lung after intranasal administration (RT-qPCR). It counts as in vivo. The settings on record: for % Sod1 Remaining: Day 10, relative to PBS. How it is done: Heart and quadricep powder were homogenized and lysed in 750 μL of QIAzol Lysis Reagent for 5 minutes×2 at 25 Hz using a TissueLyser. Chloroform ([…]) was thoroughly mixed with each sample and lysates were centrifugated at full speed for 15 minutes at 4° C. Total RNA was isolated from the supernatant using the RNeasy® 96 Universal Tissue Kit. Resulting RNA (1500 ng) was used for cDNA synthesis using the Applied Biosystems™ High-Capacity cDNA Reverse Transcription Kit with RNase Inhibitor. For qPCR reactions, 2 uL cDNA was used per 10 μL reaction. RT-qPCR was performed using the LightCycler® 480 Probes Master in the LightCycler® 480 Instrument system using gene specific TaqMan assays for each target mouse-specific Sod1 (ThermoFisher Scientific, Mm01344233_g1) and Gapdh (ThermoFisher Scientific, Mm99999915_g1) were used for RT-qPCR analysis. Each sample was analyzed in duplicate by RT-qPCR. Data were analyzed using the ΔΔCt method normalizing to control animals treated with 1×PBS alone.
Table 5 provides the study design used to evaluate the in vivo pharmacodynamic and/or pharmacologic activity of αvβ6 integrin targeting siRNA conjugates in mouse lung following intranasal administration.
Female mice were intranasally administered either a single 1 mg/kg or 10 mg/kg dose of the dsRNA agents conjugated to αvβ6 and at Day 10 post-dose animals were sacrificed and lung, heart, liver, and kidney tissues were collected. The level of Sod1 mRNA in the samples was determined by R^T-qPCR as described above.

For the next data set, the target named is T1, recombinant human αvβ6 (Homo sapiens, UniProt P06756+P18564, DEL708-788).
T1 construct: purchased R&D Systems 3817AV050
T1 sequence (P06756 31-992 limits assumed, stated change not applied): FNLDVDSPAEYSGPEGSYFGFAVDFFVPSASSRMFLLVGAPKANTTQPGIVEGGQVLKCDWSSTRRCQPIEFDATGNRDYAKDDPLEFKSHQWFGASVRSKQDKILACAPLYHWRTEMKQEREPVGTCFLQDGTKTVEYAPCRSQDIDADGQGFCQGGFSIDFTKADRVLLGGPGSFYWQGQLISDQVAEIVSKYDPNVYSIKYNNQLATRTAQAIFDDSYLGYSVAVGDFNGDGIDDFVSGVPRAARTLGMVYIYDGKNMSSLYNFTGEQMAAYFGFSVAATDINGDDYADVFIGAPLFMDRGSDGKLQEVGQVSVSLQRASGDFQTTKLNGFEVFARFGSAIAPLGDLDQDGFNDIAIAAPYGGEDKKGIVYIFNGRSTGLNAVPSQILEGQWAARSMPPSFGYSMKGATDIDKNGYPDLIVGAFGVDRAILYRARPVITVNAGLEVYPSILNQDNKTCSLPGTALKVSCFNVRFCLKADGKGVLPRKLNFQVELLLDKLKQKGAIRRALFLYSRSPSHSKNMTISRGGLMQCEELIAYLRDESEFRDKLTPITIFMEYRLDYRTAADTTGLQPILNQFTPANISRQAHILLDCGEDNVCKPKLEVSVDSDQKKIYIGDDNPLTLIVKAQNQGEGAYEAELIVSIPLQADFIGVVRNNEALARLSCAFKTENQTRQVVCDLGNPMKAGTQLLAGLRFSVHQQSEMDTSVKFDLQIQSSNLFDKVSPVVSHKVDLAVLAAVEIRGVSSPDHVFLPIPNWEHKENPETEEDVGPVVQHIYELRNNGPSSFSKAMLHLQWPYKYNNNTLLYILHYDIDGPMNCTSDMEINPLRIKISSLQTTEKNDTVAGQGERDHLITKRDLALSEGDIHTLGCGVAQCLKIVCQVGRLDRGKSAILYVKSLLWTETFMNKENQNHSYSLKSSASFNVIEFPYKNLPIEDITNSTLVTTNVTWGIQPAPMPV
T1 sequence (P18564 22-707 limits assumed, stated change not applied): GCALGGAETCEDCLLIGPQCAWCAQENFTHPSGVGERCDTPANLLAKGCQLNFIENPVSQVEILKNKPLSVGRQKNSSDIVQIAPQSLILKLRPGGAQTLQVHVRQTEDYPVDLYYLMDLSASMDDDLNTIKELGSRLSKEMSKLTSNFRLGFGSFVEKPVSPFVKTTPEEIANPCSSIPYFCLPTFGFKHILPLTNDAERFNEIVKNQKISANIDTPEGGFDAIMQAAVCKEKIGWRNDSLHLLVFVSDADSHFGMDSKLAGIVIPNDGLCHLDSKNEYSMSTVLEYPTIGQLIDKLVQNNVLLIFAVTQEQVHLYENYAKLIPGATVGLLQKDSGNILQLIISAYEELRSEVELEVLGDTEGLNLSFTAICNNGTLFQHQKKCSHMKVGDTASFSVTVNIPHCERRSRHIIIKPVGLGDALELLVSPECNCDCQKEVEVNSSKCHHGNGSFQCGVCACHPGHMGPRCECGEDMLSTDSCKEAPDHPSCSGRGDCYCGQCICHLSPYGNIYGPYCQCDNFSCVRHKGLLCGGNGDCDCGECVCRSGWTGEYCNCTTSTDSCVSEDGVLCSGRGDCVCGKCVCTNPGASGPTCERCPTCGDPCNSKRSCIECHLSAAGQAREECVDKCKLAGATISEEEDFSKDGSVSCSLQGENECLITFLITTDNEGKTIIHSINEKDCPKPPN
Kind of data set: ELISA displacement assay (αvβ6 binding to LAP/TGF1b). The settings on record: recombinant human αvβ6 vs coated human LAP/TGF1b. How it is done:
ELISA plates were coated with 0.6 ug/mL recombinant human LAP/TGF1b (R&D Systems 246LP025) in carbonate buffer (pH 9.6) overnight at 4 C. Plates were washed with PBST and blocked for 1 hour at room temperature with assay buffer (20 mM Tris-HCl, 150 mM NaCl, 2 mM CaCl2, 2 mM MgCl2, 2 mM MnCl2, 0.5% BSA, pH 7.4). Serial dilutions of competitor compound in assay buffer were added to plate, as well as 1.0 ug/mL of purified recombinant human αvβ6 (R&D Systems 3817AV050), and samples were incubated for 1 hour at room temperature. Plates were washed with PBS-T, then incubated with 2.5 ug/mL of anti-integrin av primary antibody (Sigma MAB1978) for 1 hour at room temperature. Plates were washed with PBS-T, then incubated with 2.0 ug/mL of HRP-conjugated secondary antibody for 1 hour at room temperature. Samples were incubated with TMB substrate (Thermo 34024) for 15 minutes, reaction was quenched with 3 M sulfuric acid, and absorbance was measured at 450 nm. Percent binding inhibition was calculated by normalizing to a maximum value obtained from no-competitor samples and a minimum value obtained from no-competitor-no-integrin samples. EC50 values are reported in the following ranges: “A” EC50>100 nM; “B” EC50 10-100 nM; “C” EC50<10 nM.

In the oligonucleotide strings, read from the 5' end, every base follows the letter of its sugar. An asterisk marks phosphorothioate; unmarked linkages are phosphodiester. Other units and linkages are bracketed, terminal groups are in braces. A string of capitals states the bases alone. {Q410} = αvβ6 integrin ligand conjugate, (S,R) stereochemistry, phosphorothioate-linked; {Q411} = αvβ6 integrin ligand conjugate, (R,R) stereochemistry variant; {L352} = αvβ6 integrin ligand conjugate, (S,R) stereochemistry; {L353} = αvβ6 integrin ligand conjugate, (S,S) stereochemistry; {L373Z511} = αvβ6 integrin ligand conjugate variant; {L373Z512} = αvβ6 integrin ligand conjugate variant; {L373Z513} = αvβ6 integrin ligand conjugate variant; {L354} = αvβ6 integrin ligand conjugate; {VP} = (E)-vinylphosphonate; m = 2'-O-methyl; f = 2'-fluoro

Turning to “AD-1481899.1: "3′,5′ is better than the triple (AD-1481899 vs AD-1481901 as matched pair of (S,R) stereochemistry)" (sense mC*mA*mUmUmUmUfAmAfUfCfCmUmCmAmCmUmCmUmAmA*mA*{L354}; antisense {VP}-mU*fU*mUmAmGfAmGfUfGmAmGmGmAfUmUfAmAmAmAmUmG*mA*mG; siRNA)”, the “% Sod1 Remaining” value in the data set on Sod1 mRNA (single intranasal 1 mg/kg) turned out to be 60.0%; with Sod1 mRNA (single intranasal 10 mg/kg), 52.4%.

In the case of “AD-1481901.1: "3′,5′ is better than the triple (AD-1481899 vs AD-1481901 as matched pair of (S,R) stereochemistry)" (sense {Q410}*mC*mAmUmUmUmUfAmAfUfCfCmUmCmAmCmUmCmUmAmA*mA*{L352}; antisense {VP}-mU*fU*mUmAmGfAmGfUfGmAmGmGmAfUmUfAmAmAmAmUmG*mA*mG; siRNA)”, the figures for the “% Sod1 Remaining” value with Sod1 mRNA (single intranasal 1 mg/kg) and with Sod1 mRNA (single intranasal 10 mg/kg) were 47.7% and 35.9%, respectively.

Take “AD-1481901: "inhibition of Sod1 mRNA expression in mouse quadriceps, heart, liver, and lung 21 days after a single 2 mg/kg intravenous dose" (sense {Q410}*mC*mAmUmUmUmUfAmAfUfCfCmUmCmAmCmUmCmUmAmA*mA*{L352}; antisense {VP}-mU*fU*mUmAmGfAmGfUfGmAmGmGmAfUmUfAmAmAmAmUmG*mA*mG)”: the “Sod1 knockdown in mouse lung, comparison between conjugate designs” value with Sod1 mRNA (intranasal, matched pairs by avidity or stereochemistry) is “better than the triple”. With “AD-1481902.1: "inhibition of Sod1 mRNA expression in mouse quadriceps, heart, liver, and lung 21 days after a single 2 mg/kg intravenous dose" (sense {Q411}*mC*mAmUmUmUmUfAmAfUfCfCmUmCmAmCmUmCmUmAmA*mA*{L353}; antisense {VP}-mU*fU*mUmAmGfAmGfUfGmAmGmGmAfUmUfAmAmAmAmUmG*mA*mG)”, the “% Sod1 Remaining” value is listed as 77.2% in the data set with Sod1 mRNA (single intranasal 1 mg/kg) and 51.2% in the data set on Sod1 mRNA (single intranasal 10 mg/kg). Regarding “AD-1481904.1: dsRNA agent targeting Sod1 conjugated to αvβ6 ligand: "3′-monos (AD-1481903 (S,R) vs AD-1481904 (S,S))" (sense mC*mA*mUmUmUmUfAmAfUfCfCmUmCmAmCmUmCmUmAmA*mA*{L353}; antisense {VP}-mU*fU*mUmAmGfAmGfUfGmAmGmGmAfUmUfAmAmAmAmUmG*mA*mG)”, the “% Sod1 Remaining” value with Sod1 mRNA (single intranasal 1 mg/kg) was 59.2%; with Sod1 mRNA (single intranasal 10 mg/kg), 49.8%. “AD-2032892: "inhibition of Sod1 mRNA expression in mouse gastrocnemius and quadriceps 21 days after a single 2 mg/kg intravenous dose of AD-2032892" (sense mU*mU*mGmGmGmCfAmAfAfGfGmUmGmGmAmAmAmUmGmA*mA*{L354}; antisense {VP}-mU*fU*mCmAmUfUmUfCfCmAmCmCmUfUmUfGmCmCmCmAmA*mG*mU)”: in the data set with recombinant human αvβ6, the EC50 is less than 10 nM. “AD-2639645 (sense mU*mU*mGmGmGmCfAmAfAfGfGmUmGmGmAmAmAmUmGmA*mA*{L373Z511}; antisense {VP}-mU*fU*mCmAmUfUmUfCfCmAmCmCmUfUmUfGmCmCmCmAmA*mG*mU; siRNA)”: the EC50 in the data set with recombinant human αvβ6 is more than 100 nM. Regarding “AD-2639646 (sense mU*mU*mGmGmGmCfAmAfAfGfGmUmGmGmAmAmAmUmGmA*mA*{L373Z512}; antisense {VP}-mU*fU*mCmAmUfUmUfCfCmAmCmCmUfUmUfGmCmCmCmAmA*mG*mU; siRNA)”, in the data set with recombinant human αvβ6, the EC50 lay in the range of 10 to 100 nM. Same read-out and setting: the figure for “AD-2639647 (sense mU*mU*mGmGmGmCfAmAfAfGfGmUmGmGmAmAmAmUmGmA*mA*{L373Z513}; antisense {VP}-mU*fU*mCmAmUfUmUfCfCmAmCmCmUfUmUfGmCmCmCmAmA*mG*mU; siRNA)” is less than 10 nM.
